Reference: patent US6482949B1, “Colormetric sensor compositions and methods” (priority 1999, dated 2002)

How the values were obtained:
[1] = Anion binding constants (Ka) by fluorescence quenching / UV-vis absorbance titration, chloride; settings: dichloromethane; for Anion binding constant (Ka), Cl^−: 1 by fluorescence quenching, 10 by UV-vis absorbance titration at 341 nm, errors ± 10%, average of 2-4 trials
Text: (§1) The conclusion that 1 binds fluoride anion in dichloromethane solution was further supported by mass spectrometric analyses and titration experiments made using UV-visible absorption and fluorescence emission methods (Tables 1 and 2). The latter studies, which provided Ka values (Tables 1 and 2), were complemented by molar ratio analyses (Job plots) with 1:1 binding stoichiometries observed in all cases.
(§2) Nonetheless, even with these control systems the addition of tetrabutylammonium salts of various anions (F^−, Cl^− and H2PO4^−), gave rise to results that were quite interesting. […] Such effects can be rationalized in terms of the electron withdrawing nature of the two carbonyl groups, which serve to pull the electrons from the pyrrole units and thus act to increase the acidity of the pyrrolic NH protons. As a result, hydrogen bonding interactions with F^− are favored. In the particular case of inorganic phosphate, we speculate that the two carbonyl groups may also be involved in binding, stabilizing the complex via ancillary hydrogen bonding interactions involving the two HOP-phosphate protons.

[2] = Anion binding constants (Ka) by fluorescence quenching / UV-vis absorbance titration, fluoride; settings: for Anion binding constant (Ka), F^−: 1 by fluorescence quenching (λex 412 nm), 10 by UV-vis absorbance titration at 341 nm, errors ± 10%, average of 2-4 trials; for affinity constant (Ka) for F^− binding, rounded: in dichloromethane
Text: as §1, §2

[3] = Anion binding constants (Ka) by fluorescence quenching / UV-vis absorbance titration, dihydrogen phosphate; settings: dichloromethane; for Anion binding constant (Ka), H2PO4^−: 1 by fluorescence quenching, 10 by UV-vis absorbance titration at 341 nm, errors ± 10%, average of 2-4 trials
Text: as §1, §2

[4] = Colorimetric assay: visual color change in solution on addition of fluoride anion; settings: in solution (dichloromethane), naked eye
Text: as §2
Unfortunately, the fluorescence quantum yield of 10 is low.
Using 2,3-dipyrrol-2′yl-5,6dicyanopyrazine (preparation is described in Example 30) as a sensing compound, a vivid yellow-to-red color change in solution observed upon addition of fluoride ion verifies that the quinoxaline backbone is not essential for chemical sensing in this family of compounds. This is consistent with the theory that changes in orbital overlap between the pi systems of conjugated bridging unit and the pyrrole rings account for the sensitivity of the sensing elements to analyte species.
In order to understand more fully the above results, studies were performed to map out the mode of fluoride anion binding. Firstly, it was verified that two pyrrolic nitrogens are required to observe the anion-induced color change. Toward this end, the mono protected 2,3-dipyrrylquinoxaline 12 was prepared by reacting 0.8 equivalents of SEMCl with one equivalent of 2,3-dipyrrylquinoxaline.

Row | Structure (SMILES) | Anion binding constant (Ka), Cl^− [1] [M⁻¹] | Anion binding constant (Ka), F^− ([2]; dichloromethane) | affinity constant (Ka) for F^− binding, rounded [2] | Anion binding constant (Ka), H2PO4^− [3] [M⁻¹] | fluoride anion-induced color change [4] | change in the absorbance or emission spectra on addition of Cl^− ([1]; tetrabutylammonium salt) | change in the absorbance or emission spectra on addition of F^− ([2]; dichloromethane, tetrabutylammonium salt) | change in the absorbance or emission spectra on addition of H2PO4^− ([3]; tetrabutylammonium salt)
1 | c1c[nH]c(-c2nc3ccccc3nc2-c2ccc[nH]2)c1 [compound 1, 2,3-dipyrrylquinoxaline] | 50 | 18,200 M^−1 | 20000 M⁻¹ | 60 | yellow to orange |  |  | 
2 | N#Cc1nc(-c2ccc[nH]2)c(-c2ccc[nH]2)nc1C#N [2,3-dipyrrol-2′yl-5,6dicyanopyrazine, 2,3-dipyrrol-2′yl-5,6-dicyanopyrazine] |  |  |  |  | yellow-to-red |  |  | 
3 | O=[N+]([O-])c1ccc2nc(-c3ccc[nH]3)c(-c3ccc[nH]3)nc2c1 [compound 7, 6-nitro-2,3-dipyrrylquinoxaline] | 45 | 118,000 M^−1 | ~10^5 M^−1 | 80 | yellow to purple |  |  | 
4 | O=[N+]([O-])c1cc2nc(-c3ccc[nH]3)c(-c3ccc[nH]3)nc2cc1[N+](=O)[O-] [compound 3, 2,3-dipyrrol-2′-yl-6,7-dinitroquinoxaline] | 45 | 117,000 M^−1 | ~10^5 M^−1 | 55 |  |  |  | 
5 | COc1cc2nc(-c3ccc[nH]3)c(-c3ccc[nH]3)nc2cc1OC [compound 2, 2,3-dipyrrol-2′-yl-6,7-dimethoxyquinoxaline] | <50 | 2,300 M^−1 | 2000 M⁻¹ | <50 | hardly “works” at all |  |  | 
6 | c1ccc2nccnc2c1 [compound 11, quinoxaline, reference compound] |  |  |  |  |  | did not induce any significant change in the absorbance or emission spectra | did not induce any significant change in the absorbance or emission spectra | did not induce any significant change in the absorbance or emission spectra
7 | C[Si](C)(C)CCOCn1cccc1-c1nc2ccccc2nc1-c1ccc[nH]1 [compound 12] | <50 | 2,300 M^−1 |  | <50 | no color change |  |  | 
